Reference: PubChem BioAssay (NCI)
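Test compounds were applied to cells in 96-well plates for 48 hours at 5 doses. The concentration for 50% growth inhibition is given as GI50. TGI: concentration producing complete growth inhibition.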

Key:
Test in all cases: DTP human tumour cell line panel, 48 h
SW-620 colon = test system: SW-620 colon
IGROV1 ovarian = test system: IGROV1 ovarian
UACC-62 melanoma = test system: UACC-62 melanoma
OVCAR-4 ovarian = test system: OVCAR-4 ovarian
HOP-62 NSCLC = test system: HOP-62 NSCLC
A549 NSCLC = test system: A549 NSCLC
U251 CNS = test system: U251 CNS
SNB-19 CNS = test system: SNB-19 CNS
CAKI-1 renal = test system: CAKI-1 renal
COLO 205 colon = test system: COLO 205 colon

Compound | GI50 (SW-620 colon) [nM] | TGI (SW-620 colon) [µM] | GI50 (IGROV1 ovarian) [nM] | TGI (IGROV1 ovarian) [µM] | GI50 (UACC-62 melanoma) [nM] | TGI (UACC-62 melanoma) [µM] | GI50 (OVCAR-4 ovarian) [nM] | TGI (OVCAR-4 ovarian) [µM] | GI50 (HOP-62 NSCLC) [nM] | TGI (HOP-62 NSCLC) [µM] | GI50 (A549 NSCLC) [nM] | TGI (A549 NSCLC) [µM] | GI50 (U251 CNS) [nM] | TGI (U251 CNS) [µM] | GI50 (SNB-19 CNS) [nM] | TGI (SNB-19 CNS) [µM] | GI50 (CAKI-1 renal) [nM] | TGI (CAKI-1 renal) [µM] | TGI (COLO 205 colon) [µM]
Cn1cc(-c2csc(-c3cn(C)c4ccc(Br)cc34)n2)c2cnccc21 | 1850 | 3.48 | 1760 | 3.28 | 1720 | 3.21 | 1680 | 3.15 | 1900 | 3.49 | 1830 | 3.48 | 1780 | 3.27 | 1730 | 3.26 | 1770 | 3.22 | –
[O-]c1c[n+](CCCC[n+]2cc([O-])on2)no1 | – | > 100 | – | > 100 | – | > 100 | – | > 100 | – | > 100 | – | > 100 | – | > 100 | – | > 100 | – | > 100 | > 100
NC(=O)c1ccc(NS(=O)(=O)c2ccc(N)cc2)nc1 | – | > 100 | – | > 100 | – | > 100 | – | > 100 | – | > 100 | – | – | – | > 100 | – | > 100 | – | > 100 | > 100
CN(C)CC1CCCC(CN2CCCCC2)C1=O (stereo not given) | – | 3.74 | – | 35.5 | – | 33.5 | – | 7.75 | – | > 100 | – | > 76.4 | – | > 66.9 | – | > 100 | – | 3.73 | 7.03
CC(N)C(=O)OCN1C(=O)C2C3C=CC(C2C1=O)C1C2C(=O)N(COC(=O)C(C)N)C(=O)C2C31 (stereo not given) | – | 47.4 | – | > 100 | – | 49 | – | 40.9 | – | > 100 | – | 77.7 | – | 50.3 | – | > 100 | – | > 100 | 35.1
Nc1nc(Cl)cc(NCCCNc2cc(Cl)nc(N)n2)n1 | – | > 100 | – | > 100 | – | > 100 | – | > 100 | – | > 100 | – | > 100 | – | > 100 | – | – | – | – | > 100
C1CCC(OCc2nnn3c2CCC3)OC1 (stereo not given) | – | > 100 | – | > 100 | – | > 100 | – | > 100 | – | > 100 | – | > 100 | – | > 100 | – | – | – | – | –
C=C1C(=O)OC2/C=C(\C)C3OC3/C=C(/C(=O)OC)C(O)C(OC(=O)C3(C)OC3C)C12 (stereo not given) | – | 3.1 | – | 8.45 | – | 5.19 | – | 8.77 | – | 35.8 | – | 32 | – | 16.8 | – | – | – | 4.97 | 2.52
Cc1ccccc1[P+](C)(c1ccccc1C)c1ccccc1C | – | 39.1 | – | 33 | – | 25.7 | – | 18.1 | – | 71.8 | – | 55.4 | – | 28.4 | – | 37.4 | – | – | 22.4
O=c1oc2ccccc2n1P(=O)(n1c(=O)oc2ccccc21)n1c(=O)oc2ccccc21 | – | > 100 | – | > 100 | – | > 100 | – | > 100 | – | > 100 | – | > 100 | – | > 100 | – | > 100 | – | > 100 | > 100
CO[C@H]1ON=C(c2c(C)cc(C)cc2C)[C@@H]1C1(c2ccccc2)ON=C(c2c(C)cc(C)cc2C)O1 (stereo not given in full) | – | > 100 | – | > 100 | – | > 100 | – | – | – | – | – | > 100 | – | > 100 | – | > 100 | – | – | > 100
c1ccc(CSC2(SCc3ccccc3)CCCC2)cc1 | – | > 10 | – | > 10 | – | > 10 | – | > 10 | – | > 10 | – | > 10 | – | > 10 | – | > 10 | – | > 10 | > 10
CC(C)OC(=O)Nc1cccc(Cl)c1 | – | > 100 | – | > 100 | – | > 100 | – | > 100 | – | > 100 | – | > 100 | – | > 100 | – | > 100 | – | > 100 | > 100
CS/C(C#N)=C(\C#N)SC | – | > 100 | – | 43.8 | – | 14.4 | – | 38.2 | – | > 100 | – | > 100 | – | > 100 | – | 65.9 | – | 22.3 | > 100
Cc1ccc(S(=O)(=O)N2c3ccccc3[C@H]3CCc4c([nH]c5ccccc45)[C@H]32)cc1 | – | > 100 | – | > 100 | – | > 100 | – | > 100 | – | > 100 | – | > 100 | – | > 100 | – | > 100 | – | > 100 | > 100
CN1C(=O)CN2C(Cl)(Cl)C2(c2ccccc2F)c2cc([N+](=O)[O-])ccc21 (stereo not given) | – | > 100 | – | > 100 | – | > 100 | – | > 100 | – | > 100 | – | – | – | > 100 | – | – | – | > 100 | > 100
